Results: patent US9931335B2, “Desethylhydroxychloroquine for the treatment of diseases associated with inflammation” (The Board of Trustees of the Leland Stanford Junior …, priority 2013, dated 2018)
“Also recorded” adds a separate entry of the source. Where a name gives a salt, the structure may show the parent alone.

Legend:
[1] = test system: collagen-induced arthritis (CIA) in DBA/1 mice; assay: Collagen-induced arthritis (CIA) mouse model for RA, treatment from first immunization; format: in vivo; conditions: 50 mg/kg/day oral gavage, 100 mg/kg/day loading day 14-21; vs vehicle, Mann Whitney U test P<0.05
[2] = test system: diet-induced obesity in C57BL/6 mice; assay: Mouse diet-induced obesity: type II diabetes, hyperlipidemia and metabolic syndrome; format: in vivo; conditions: 10 mg/kg/day, 6 weeks, vs vehicle; for blood glucose: two-tailed T test
Protocol: To evaluate treatment with DHCQ and HCQ on a mouse model of diet-induced type II diabetes, hyperlipidemia and metabolic syndrome, C57BL/6 mice (8 per group) were fed a high-fat “western-style” diet (60% caloric content from fat; Taconic). In an analogous fashion to that in Example 6, two weeks following initiation of the high-fat diet groups of mice were initiated on treatment with vehicle control, HCQ (10 mg/kg/day) or the HCQ metabolites DHCQ (10 mg/kg/day), DCQ (10 mg/kg/day), or BDCQ (10 mg/kg/day). After 6 weeks of treatment, blood was collected for analysis of glucose, triglyceride, and cholesterol levels.

ARPE-19 cells = test system: ARPE-19 cells
Protocol: The major serious risk to long term administration of hydroxychloroquine is retinal accumulation and subsequent ocular toxicity (Terahi et al, 2008. Semin Opthal. (3):201-208. PMID). The ocular deposition of HCQ, DHCQ, and BDCQ was evaluated by direct retinal cellular toxicity by incubating equivalent concentrations of these molecules with the retinal pigmented epithelial cell line ARPE-19. ARPE-19 is a human retinal pigment epithelial cell line with differentiated properties (Dunn et al., Exp Eye Res. 1996 62(2):155-69). ARPE-19 cells were grown to 90% confluence, and then exposed to 10 µg/ml of HCQ, DHCQ, BDCQ, or vehicle control for 24 hours, following which microscopic analysis and photomicroscopy was performed at 40× power.
As described above, ARPE-19 cells were grown to 90% confluence then exposed to 10 μg/ml HCQ, DHCQ, BDCQ, or vehicle control for 24 hours followed by quantitation of cell death by lactate dehydrogenase (LDH) release assay (Abcam).

retinal toxicity = conditions: cited from earlier work
[3] = test system: DMM-induced OA in C57BL6 (B6) mice; assay: Destabilization of the medial meniscus (DMM) mouse model of osteoarthritis; format: in vivo; conditions: aminoquinolines 100 mg/kg/day, atorvastatin 40 mg/kg/day, oral gavage from 1 week after DMM, 3 months; vs vehicle, two-tailed T test
Protocol: One week following surgical induction, treatment was initiated with vehicle control, hydroxychloroquine (HCQ), or desethylhydroxychloroquine (DHCQ) dosed at 100 mg/kg/day by oral gavage (once per day). After 3 months, mice were sacrificed, joints harvested, joint sections cut, and tissue sections stained with safranin-O. An examiner blinded to treatment used microscopy to score the severity of OA. The “Cartilage Degeneration Score” (also known as the “OA score”, “Severity Score” and “Histology Score”) was determined by a blinded examiner, and the two-tailed T test used to determine if there were statistical differences in the Cartilage Degeneration Scores between groups.
The histologic sections generated at the termination of the mouse OA experiment presented above and in FIG. 5 were subject to blinded scoring for the “Osteophyte Score” (measure of the amount of osteophyte or ectopic bone formation) and “Synovitis Score” (measure of the amount of synovial and joint inflammation). The scores between groups were compared by two-tailed T test.
Experiments were performed under protocols approved by the Stanford University Committee of Animal Research and in accordance with NIH guidelines. Murine OA was generated by surgically by destabilization of the DMM (Glasson, S., S., et al., Osteoarthritis Cartilage, 15: 1061-1069 (2007)).
Mice were euthanized 3 months after surgery. Their stifle joints were decalcified in EDTA solution, fixed in 4% paraformaldehyde, and embedded in paraffin. Serial 4 micron sections were cut and stained with toluidine blue. Scoring of arthritis in these histology sections was done according to a modified version of previously described composite scoring systems (Kamekura, S., et al. Osteoarthritis Cartilage 13: 632-641 (2005); Bendele, A. M., J Musculoskelet Neuronal Interact., 1: 363-376 (2001)). The “OA Score” was calculated as follows: cartilage degeneration (0-4) was multiplied by the width (1=1/3, 2=2/3, and 3=3/3 of surface area) of each third of the femoral-medial and tibial-medial condyles, and the scores for the 6 regions were summed. To evaluate osteophyte (ectopic bone) formation, we scored toluidine-blue-stained sections according to a previously described scoring system (Kamekura, S., et al. Osteoarthritis development in novel experimental mouse models induced by knee joint instability. Osteoarthritis Cartilage 13, 632-641 (2005)): 0, none; 1, formation of cartilage-like tissues; 2, increase of cartilaginous matrix; 3, endochondral ossification. To evaluate synovitis, we scored H&E-stained sections according to a previously described scoring system (Blom, A. B., et al. Synovial lining macrophages mediate osteophyte formation during experimental osteoarthritis. Osteoarthritis Cartilage 12, 627-635 (2004)): 0, no changes compared to normal joints; 1, thickening of the synovial lining and some influx of inflammatory cells; 2, thickening of the synovial lining and intermediate influx of inflammatory cells; and 3, profound thickening of the synovial lining (more than four cell layers) and maximal observed influx of inflammatory cells. Scores for osteophyte formation and synovitis were recorded for the femoral-medial and the tibial-medial condyles on the operated side of the joint, and the scores for the two regions were summed and statistical comparisons performed using a two-tailed T test.
Treatment was started 1 week after surgical induction of destabilization of the medial meniscus (DMM), a time point at which mice were at increased risk for the development of OA.

Structure (SMILES)	arthritis score (development of disease and disease activity) [1]	total cholesterol [2]	triglycerides [2]	blood glucose [2]	further results
CC(CCCN)Nc1ccnc2cc(Cl)ccc12 (centres unmarked) [BDCQ, bisdesethylchloroquine]	not associated with statistical protection or reduction in disease severity	did not result in statistical reductions	did not result in statistical reductions	did not result in statistical reductions in blood glucose	ARPE-19 cellular toxicity by microscopy (ARPE-19 cells): increased cytotoxicity and death
CCNCCCC(C)Nc1ccnc2cc(Cl)ccc12 (centres unmarked) [DCQ, desethylchloroquine]	not associated with statistical protection or reduction in disease severity	did not result in statistical reductions	did not result in statistical reductions	did not result in statistical reductions in blood glucose	
CCN(CCO)CCCC(C)Nc1ccnc2cc(Cl)ccc12 (centres unmarked) [HCQ sulfate, hydroxychloroquine sulfate]					incidence of retinal toxicity after 5 years (retinal toxicity; treated humans, conventional doses): 0.5-1%; incidence of retinal toxicity after 10-15 years (retinal toxicity; treated humans): approximately 2%; physician discontinuation for earlier eye problems over 5 years (retinal toxicity; treated patients): ~7%
CC(C)c1c(C(=O)Nc2ccccc2)c(-c2ccccc2)c(-c2ccc(F)cc2)n1CC[C@@H](O)C[C@@H](O)CC(=O)O [atorvastatin, reference compound]					Cartilage Degeneration Score (OA score) [3]: only resulted in trends towards improvement; also recorded: did not result in a statistically significant reduction in the severity of OA
CCN(CC)CCCC(C)Nc1ccnc2cc(Cl)ccc12 (centres unmarked) [chloroquine]					rates of retinal toxicity relative to HCQ (retinal toxicity; in vivo): Considerably higher rates of toxicity
